Test results as given in patent publication US20240263159A1, “GENE EDITING IN PRIMARY IMMUNE CELLS USING CELL PENETRATING CRISPR-CAS SYSTEM” (THE TRUSTEES OF THE UNIVERSITY OF PENNSYLVANIA, priority 2021, published 2024).

How the values were obtained:
[1] = system: CD90.2; assay: in vitro editing in mouse primary CD8 T cells, CD90.2 knockdown by flow cytometry; type: cell-based
[2] = system: CD45.2; assay: in vitro editing in mouse primary CD8 T cells, CD45.2 knockdown by flow cytometry; type: cell-based; settings: CD45.2 sgRNA_1, 5 μM TAT-4×Myc NLS-Cas9, 75 μM dTAT-HA2, Day 4
Protocol: FIG. 3C: An example of flow plots showing the percentage of sgRNA+Cas9+ for Rosa and CD45.2.
FIG. 3D: Target genes are knocked down during Days 1-5 in vitro culture as measured by flow cytometry.
RN2-Cas9 cells were infected with retrovirus expressing sgRNA and mCherry, and CD45.2 expression level was measured by flow cytometry after 3 days of infection. Both sgRNAs targeting CD45.2 efficiently knocked down CD45.2 compared to sgRNAs targeting Rosa26 (FIG. 3A). It was next tested whether TAT-4×Myc Cas9 can edit the genome in mouse primary CD8 T cells. Briefly, on Day −2, primary CD8 T cells were isolated from 3-month-old mouse spleen and activated by CD3, […], and IL-2 for 24 hours. On Day −1, the activated cells were infected with retrovirus expressing sgRNA and mCherry for 24 hours. Cells were then treated with 5 μM TAT-4×Myc NLS-Cas9 (with GFP tag) and 75 μM dTAT-HA2, and incubated in RPMI 1640 supplied with 1% FBS and 50 μM 2-mercaptoethanol in a 37° C. incubator for 40 min. […] CD45.2 expression level was measured by flow cytometry from Day 1 to Day 5. […] The stability of TAT-4×Myc NLS-Cas9 was evaluated in the cells by measuring normalized Mean Fluorescence Intensity (MFI) of GFP.

[3] = system: PD-1; settings: mouse, in vivo
[4] = system: EL4 mCherry reporter cell line; assay: EL4 mCherry reporter gene editing, loss of mCherry by flow cytometry; settings: 5 μM TAT-4×Myc NLS-Cas9, 75 μM dTAT-HA2, 30 min, no FBS
[5] = system: 8.7 kb DNA fragment; assay: in vitro DNA cleavage assay; type: biochemical; settings: Cas9 RNP with sgRNA, 37° C.
Protocol: Cas9 RNPs were assembled by incubating purified spCas9 or TAT-4×Myc NLS-Cas9 with sgRNA targeting a 8.7 kb DNA fragment, and incubated with the DNA fragment for 1, 5, 10, and 15 min at 37° C. The reaction was stopped and the DNA products were separated on a 0.8% agarose gel. Uncut band (˜8.7 kb) and two cleaved bands (˜2.7 kb and 6 kb) are shown on the gel.
TAT-4×Myc NLS-Cas9 expression construct was created by replacing the 4×SV40 NLS (PKKKRKV (SEQ ID NO: 1423)) at the N-terminus of Cas9 (Staahl et al., (2017) Nat Biotechnol 35, 431-434) with 4×Myc NLS ([…] (SEQ ID NO: 1)) with linker -G-G-S- between Myc NLS. The sequence of the TAT cell penetrating peptide ([…] (SEQ ID NO: 2)), derived from the trans-activating transcriptional activator (Tat) from HIV-1 (Frankel and Pabo, 1988; Green and Loewenstein, 1988), was added to the N-terminus, and TAT-4×Myc NLS-Cas9 was cloned into a bacterial recombinant protein expression vector (Gootenberg et al., 2017) with a Twin-Strep and SUMO tag (FIG. 1A). Next, TAT-4×Myc NLS-Cas9 protein was purified by Strep-Tactin affinity chromatography followed by on-column SUMO protease digestion, ion exchange chromatography (IEC), and size exclusion chromatography (SEC) (FIG. 1B) (Gootenberg et al., (2017) Science 356, 438-442).

[6] = system: Thy1 and Ptprc genes; assay: Cas9-PAGE with retroviral sgRNA in murine primary CD8 T cells ex vivo (flow cytometry, TIDE assay); type: cell-based; settings: sgThy1_IG1 or sgNeg, various concentrations of TH, 5 μM Cas9-T6N^CPP, 30 min
Protocol: FIG. 12A: A schematic of the experimental workflow of evaluating the PAGE system in murine primary CD8 T cells ex vivo. Murine primary T cells were activated with anti-CD3, anti-CD28 and IL-2, followed by retroviral transduction with a sgRNA expression vector linked with mCherry fluorescent marker. […] Gene editing was evaluated at various time points by flow cytometry against indicated gene products or via direct sanger sequencing of the targeted genomic regions. […] Cells were transduced with either sgThy1_IG1 or sgNeg, followed by 30 min incubation with various concentrations of TH and 5 μM Cas9-T6N^CPP. Flow cytometry analysis was performed at the indicated days post-treatment. […] FIG. 12C: Mean Fluorescent Intensity (MFI) quantification of the flow cytometry analysis at 4 days post-treatment in FIG. 12B (left panel). […] FIG. 12E: Quantification of live cell recovery of CD8 T cells treated with an increased concentration of TH. […] Genomic DNA was isolated at day 6 post-treatment of PAGE, sanger sequenced, and followed by quantification via an online TIDE analysis tool. sgThy1_IG1, sgThy1_IG2, sgThy1_IG3, sgRNAs targeting the Immunoglobulin domain of Thy1 gene; sgPtprc_CAT1 and sgPtprc_TM1, sgRNAs targeting either the catalytic domain or transmembrane domain of Ptprc gene; sgNeg, an sgRNA targeting Ano9 gene was used as a negative control here. […]

## TAT-4×NLS^MYC-Cas9-2×NLS^SV40-sfGFP [TAT-4×Myc NLS-Cas9]
[1]; CD90.2 sgRNA_2, 5 μM TAT-4×Myc NLS-Cas9, 75 μM dTAT-HA2, Day 3
  percentage of CD90.2 knockdown cells, maximum: ~90%
[1]; CD90.2 sgRNA_3, 5 μM TAT-4×Myc NLS-Cas9, 75 μM dTAT-HA2, Day 3
  percentage of CD90.2 knockdown cells, maximum: ~70%
[2]
  percentage of CD45.2 knockdown cells, maximum: ~60%
[3]
  PD-1 expression: ~20%
  percentage of sgRNA^+P14 T cell population and total number of sgRNA^+P14 T cells: increased
[4]
  percentage of mCherry^− cells: 92.9%
[5]
  DNA cleavage: efficiently cleaved DNA

## dTAT-HA2 [TH]
[6]
  Cas9-T6N^CPP gene editing in murine primary CD8 T cells: promoted Cas9-T6N^CPP gene editing
